What was measured:
[1] = system: anti-DBP MAb; test: Hapten coated icELISA (DBAP directly linked to polystyrene); format: binding, mouse; settings: for CR (cross-reactivity): CR (%) = IC50 DBP/IC50 analogue×100; for inhibition: at 10 mg/mL; for antibody recognition: specificity of MAb
Protocol: (§1) An icELISA was used to assess the sensitivity of the MAb to free DBP and the cross-reactivities of structurally related compounds to the antibody. For competition, 50 µL of standards or diluted samples in assay buffer were placed in the wells, and 50 µL of the anti-DBP MAb diluted with assay buffer was added. After incubated for 1.5 h at 25°C, the plate was washed. The following procedure was followed as described for the inELISA. […] Standards and samples were run in triplicate wells, and the mean absorbance values were processed. Standard curves were obtained by plotting absorbance against the logarithm of analyte concentration and fitted with a logistic four-parameter equation y = (A−D)/[1+(x/C)^B]+D, where A is the absorbance value with no analyte present, B is the slope near the midpoint inhibition concentration, C is the concentration of analyte giving 50% inhibition (IC50), and D is the minimum absorbance value at infinite concentration of the analyte, [21]. Dynamic range was established between the concentrations producing 20% and 80% inhibition (IC20–IC80 or 80%–20% of the maximum response). Limit of detection (LOD) was determined as the concentration corresponding to 10% inhibitory concentration (IC10 or 90% of the maximum response) [22]–[24].
Polystyrene surface was first carboxylated by permanganate oxidation. Microwells were filled with a solution of 5% KMnO4 in 0.6 mol/L H2SO4 (150 µL/well) for 60 min at 60°C. The plates were washed with 6 mol/L HCl (3×5 min, 200 µL/well) to remove the brown manganese oxide and rinsed three times with distilled water giving polystyrene-COOH microwells [25]. Then 150 µL of EDC and hapten DBAP in 0.1 mol/L MES buffer (pH 5.0) were placed in the wells and incubated overnight under shaking (Fig. 2). The subsequent procedures were the same as conjugate coated inELISA or icELISA under optimal condition. The essential steps in direct attachment of hapten DBAP to polystyrene surface such as concentrations of EDC and conjugation temperatures were determined by the amount of antibody on the modified polystyrene surface measured by inELISA with coating concentration of 2 µg/mL DBAP and MAb dilution of 1∶2000. The optimal coating concentration of DBAP and dilution of MAb were determined by checkerboard titration.
To determine the specificity of MAb produced, the ability of the MAb to recognize several structurally related compounds (analogues) was tested by performing hapten coated icELISA and determining their respective IC50 values. The cross-reactivity (CR) values were calculated according to the following equation CR (%) = IC50 DBP/IC50 analogue×100 [23], [26].

[2] = system: MAb; test: Binding of MAb to hapten linked on polystyrene surface; set-up: species or system mouse; settings: carboxylated hapten linked to polystyrene surface; absorbance at 492 nm too low
Text: Although methods had already been reported for linking hapten to polystyrene surface, [11], it was not applicable to the hapten coated ELISA for DBP because the MAb produced hardly bound to the carboxylated hapten DBCP on polystyrene (The absorbance value at 492 nm was too low.). Thus it was needed to immobilize the aminated hapten DBAP to the surface of polystyrene. Holthues et al had linked an aminated hapten ABA–atrazine to a glutaraldehyde polymer network directly bound to polystyrene surface and developed very sensitive ELISA to detect terbutryn. However, it was a failure to establish hapten coated ELISA for DBP based on covalently linking DBAP to a glutaraldehyde polymer network on polystyrene surface. […] The hapten coated format presented is proposed as generally applicable, because the carboxyl on modified microtiter plate surface enables stable immobilization of aminated or hydroxylated hapten through EDC.

[3] = system: anti-DBP MAb; test: Conjugate coated indirect competitive ELISA (icELISA), DBAP-BSA coated; format: binding, mouse
Protocol: Checkerboard titration, in which purified MAb was titrated against varying amounts of the coating hapten-conjugate was used to measure the reactivity of antibodies and to select an appropriate coating concentrations and antibody dilutions for icELISA [19]. The checkerboard assays were performed with inELISA. Microtiter plates were coated with 100 µL/well of hapten-protein conjugates (0, 0.125, 0.25, 0.5, and 1 µg/mL) in 0.05 mol/L carbonate buffer (pH 9.6) and incubated overnight at 4°C. The plates were washed three times with PBST (0.01 mol/L PBS containing 0.05% Tween-20, pH 7.4, 200 µL/well) and were blocked with 3% (w/v) skim milk powder (SMP) in PBS (250 µL/well) for 1 h at 37°C. After another washing step, 100 µL/well of purified anti-DBP MAb (1∶1000, 1∶2000, 1∶4000, 1∶8000, 1∶16000, and 1∶32000) diluted in PBS containing 0.1% BSA was added. After incubation for 1.5 h at 25°C, the plates were washed. Subsequently, the plates were incubated for 1 h at 37°C with 10000-fold diluted HRP-anti-mIgG in PBS containing 0.1% BSA (100 µL/well). After another washing step, 100 µL/well of freshly prepared O-phenylenediamine (OPD) solution (0.4 mg/mL OPD and 0.012% H2O2 in 0.05 mol/L citrate-phosphate, pH 5.0) was added. The reaction was stopped with 2 mol/L sulfuric acid (50 µL/well) after an incubation of 15 min at room temperature keeping away from light. The absorbance was recorded at a primary wavelength of 492 nm with a reference wavelength of 630 nm.
as §1
The influence of several experimental parameters on assay characteristics was examined in order to improve the sensitivity of the immunoassay. Concentrations of coating antigen and dilutions of MAb were determined by checkerboard titration. Other different experimental parameters such as organic solvents, pH, ionic strength, and detergent in assay buffer, and blocking agents were studied sequentially in this order using the above described icELISA protocol. Each time an evaluated parameter was changed, the new value was used for the evaluation of the next condition. Criteria used to evaluate the assay performances were the absorbance of zero concentration of DBP (Amax) and IC50.

[4] = system: antibodies in hybridoma culture supernatants; test: Hybridoma screening by icELISA with 1 µg/mL DBAP-BSA; format: binding, mouse; settings: three competitive clones of 352 wells; coated antigen 1 µg/mL DBAP-BSA
Protocol: SP 2/0 murine myeloma cells were cultured in DMEM supplemented with 15% fetal bovine serum and 1% penicillin–streptomycin. Cell fusion and hybridoma culture procedures were carried out essentially as described by James. Mice splenocytes were mixed with SP 2/0 cells at the ratio of 5∶1 and centrifuged at 450 g for 5 min. One milliliters of polyethylene glycol solution at 37°C was dropped to the cell pellet over 1 min. The cell pellet was rotated for further 1 min, then 1 mL of DMEM added over 1 min, 2 mL of DMEM over 2 min. Finally, 12 mL was added over 2 min. After centrifugation at 450 g for 5 min, the cells were pelleted again, resuspended in HAT medium (DMEM containing 15% fetal bovine serum, 1% penicillin–streptomycin and 2% HAT media supplement) and plated into 96-well plates in which normal mouse peritoneal exudate cells (as feeder cells) had already been cultured 1 day before fusion. The colonies were fed every fifth day with freshly prepared HAT medium. […] The ratio of both absorbances was used as the criterion for selecting the best antibody-secreting clones. […]
An icELISA was used to assess the sensitivity of the MAb to free DBP and the cross-reactivities of structurally related compounds to the antibody. […] Standards and samples were run in triplicate wells, and the mean absorbance values were processed. […]

[5] = system: polyclonal antibody; set-up: method as in PMID 16947007; settings: cited from earlier work
[6] = cross-reactivity study, hapten coated icELISA, mean ±SD of three replicates
[7] = conjugate coated icELISA, optimized conditions
[8] = hapten coated icELISA, optimized conditions

CCCCOC(=O)c1ccccc1C(=O)OCc1ccccc1 [BBP, Butyl benzyl phthalate]
IC50 [1, 6]: 0.0721 ± 0.0142 µg/mL

CCCCOC(=O)c1ccc(N)cc1C(=O)OCCCC [DBAP, dibutyl 4-aminophthalate]
CR (cross-reactivity) ([1]; hapten coated icELISA): 27.8%
IC50 [1, 6]: 0.0529 ± 0.0124 µg/mL

CCCCOC(=O)c1ccc(NC(=O)CCC(=O)O)cc1C(=O)OCCCC [DBCP]
binding of MAb to hapten on polystyrene [2]: hardly bound

CCCCOC(=O)c1ccccc1C(=O)OCCCC [DBP, Dibutyl phthalate]
IC50 (blocking agent optimization) ([3]; OVA as a blocking reagent (Fig. 4D)): 0.10813 ± 0.01952 µg/mL
IC50 (lowest, pH optimization) ([3]; assay buffer pH 6.8 (Fig. 4A)): 177.04±15.37 ng/mL
IC50 ([3]; assay buffer with 0% DMF (DMF series) in PBS containing 0.1% BSA, mean ±SD, three replicates): 0.369 ± 0.0274 µg/mL
IC50 ([3]; assay buffer with 0% DMSO (DMSO series) in PBS containing 0.1% BSA, mean ±SD, three replicates): 0.392 ± 0.0702 µg/mL
IC50 ([3]; assay buffer with 0% acetonitrile (acetonitrile series) in PBS containing 0.1% BSA, mean ±SD, three replicates): 0.471 ± 0.0306 µg/mL
IC50 ([3]; assay buffer with 0% dioxane (dioxane series) in PBS containing 0.1% BSA, mean ±SD, three replicates): 0.797 ± 0.0198 µg/mL
IC50 ([3]; assay buffer with 0% methanol (methanol series) in PBS containing 0.1% BSA, mean ±SD, three replicates): 1.4 ± 0.0643 µg/mL
IC50 ([3]; assay buffer with 5% DMF in PBS containing 0.1% BSA, mean ±SD, three replicates): 0.303 ± 0.0302 µg/mL
IC50 ([3]; assay buffer with 5% DMSO in PBS containing 0.1% BSA, mean ±SD, three replicates): 0.373 ± 0.0318 µg/mL
IC50 ([3]; assay buffer with 5% acetonitrile in PBS containing 0.1% BSA, mean ±SD, three replicates): 0.444 ± 0.0118 µg/mL
IC50 ([3]; assay buffer with 5% dioxane in PBS containing 0.1% BSA, mean ±SD, three replicates): 1.679 ± 0.271 µg/mL
IC50 ([3]; assay buffer with 5% methanol in PBS containing 0.1% BSA, mean ±SD, three replicates): 0.637 ± 0.0671 µg/mL
IC50 ([3]; assay buffer with 10% DMF in PBS containing 0.1% BSA, mean ±SD, three replicates): 0.223 ± 0.0118 µg/mL
IC50 ([3]; assay buffer with 10% DMSO in PBS containing 0.1% BSA, mean ±SD, three replicates): 0.52 ± 0.0661 µg/mL
IC50 ([3]; assay buffer with 10% acetonitrile in PBS containing 0.1% BSA, mean ±SD, three replicates): 0.325 ± 0.0088 µg/mL
IC50 ([3]; assay buffer with 10% dioxane in PBS containing 0.1% BSA, mean ±SD, three replicates): 2.509 ± 0.504 µg/mL
IC50 ([3]; assay buffer with 10% methanol in PBS containing 0.1% BSA, mean ±SD, three replicates): 0.624 ± 0.0145 µg/mL
IC50 ([3]; assay buffer with 20% DMF in PBS containing 0.1% BSA, mean ±SD, three replicates): 0.345 ± 0.0175 µg/mL
IC50 ([3]; assay buffer with 20% DMSO in PBS containing 0.1% BSA, mean ±SD, three replicates): 0.423 ± 0.053 µg/mL
IC50 ([3]; assay buffer with 20% acetonitrile in PBS containing 0.1% BSA, mean ±SD, three replicates): 0.428 ± 0.0112 µg/mL
IC50 ([3]; assay buffer with 20% dioxane in PBS containing 0.1% BSA, mean ±SD, three replicates): 2.191 ± 0.224 µg/mL
IC50 ([3]; assay buffer with 20% methanol in PBS containing 0.1% BSA, mean ±SD, three replicates): 0.889 ± 0.0186 µg/mL
IC50 ([3]; conjugate coated icELISA standard curve, optimized conditions (DBAP-BSA 0.25 µg/mL, MAb 1:8000)): 0.106 µg/mL
LOD (IC10) [3, 7]: 0.0105 µg/mL
dynamic range (IC20–IC80) [3, 7]: 0.0252 to 0.445 µg/mL
CR (cross-reactivity) ([1]; hapten coated icELISA): 100%
IC50 [1, 6]: 0.0147 ± 0.0028 µg/mL
IC50 ([1]; hapten coated icELISA standard curve, optimized conditions (DBAP 1 µg/mL, MAb 1:1000)): 0.0146 µg/mL
LOD (IC10) [1, 8]: 0.000426 µg/mL
dynamic range (IC20–IC80) [1, 8]: 0.00174 to 0.123 µg/mL
IC50 [4]: < 5 µg/mL
limit of detection (LOD) ([5]; as stated by Zhang et al): 0.02 µg/L
concentration causing 50% of the maximal fluorescence quenching ([5]; maximum concentration used did not cause 50% quenching): > 1000 µg/L

CCCCC(CC)COC(=O)c1ccccc1C(=O)OCC(CC)CCCC (stereo not drawn) [DEHP, di(2-ethylhexyl) phthalate]
inhibition ([1]; hapten coated icELISA): 1.12% inhibition at 10 mg/mL
antibody recognition ([1]; hapten coated icELISA): absence of recognition

CCOC(=O)c1ccccc1C(=O)OCC [DEP, diethyl phthalate]
inhibition ([1]; hapten coated icELISA): 5.08% inhibition at 10 mg/mL
antibody recognition ([1]; hapten coated icELISA): absence of recognition

COC(=O)c1ccccc1C(=O)OC [DMP, dimethyl phthalate]
inhibition ([1]; hapten coated icELISA): 7.98% inhibition at 10 mg/mL
antibody recognition ([1]; hapten coated icELISA): absence of recognition

CCCCCCCCOC(=O)c1ccccc1C(=O)OCCCCCCCC [DOP, di(n-octyl) phthalate]
inhibition ([1]; hapten coated icELISA): 1.15% inhibition at 10 mg/mL
antibody recognition ([1]; hapten coated icELISA): absence of recognition

Reference: publication PMC3246456, “An Immunoassay for Dibutyl Phthalate Based on Direct Hapten Linkage to the Polystyrene Surface of Microtiter Plates” (PLoS ONE, 2011)
